Here are results for 9 compounds from ChEMBL document CHEMBL1135002, “Optimization of a pyrazolo[1,5-a]pyrimidine class of KDR kinase inhibitors: improvements in physical properties enhance cellular activity and pharmacokinetics” (Bioorg Med Chem Lett, 2002).

A word on the bioavailability: it is the share of a dose that reaches the circulation, judged against a reference dose that is usually intravenous. A word on the half-life: it is how long it takes for the measured level to halve. A low value points to fast loss. One may read the logP as the decadic logarithm of the partition coefficient of the neutral form, usually between octanol and water. The IC50 is the concentration that inhibits the measured activity by half.

Data set [1] can be described thus: Bioavailability in rat. Type of data set: ADME, organism-based. The conditions noted are these: in vivo.
A short description of data set [2]: The pharmacokinetic parameter volume of distribution in vivo in rats. Type of data set: ADME, organism-based. The conditions noted are these: rat, read-out: Vdss.
The nature of data set [3]: The pharmacokinetic parameter half-life period in vivo in rats. It counts as ADME, organism-based. As to conditions: rat.
A short description of data set [4]: Partition coefficient (logP). It counts as physicochemical. The conditions noted are these: octanol/water.
In data set [5] the target is Vascular endothelial growth factor receptor (Homo sapiens, UniProt P17948+P35916+P35968). The conditions noted are these: endothelial cell.
Description: Inhibition of VEGF-stimulated mitogenesis in endothelial cells
In data set [6] the target is Vascular endothelial growth factor receptor 2 (Homo sapiens, UniProt P35968).
Sequence of Vascular endothelial growth factor receptor 2 (P35968 whole entry): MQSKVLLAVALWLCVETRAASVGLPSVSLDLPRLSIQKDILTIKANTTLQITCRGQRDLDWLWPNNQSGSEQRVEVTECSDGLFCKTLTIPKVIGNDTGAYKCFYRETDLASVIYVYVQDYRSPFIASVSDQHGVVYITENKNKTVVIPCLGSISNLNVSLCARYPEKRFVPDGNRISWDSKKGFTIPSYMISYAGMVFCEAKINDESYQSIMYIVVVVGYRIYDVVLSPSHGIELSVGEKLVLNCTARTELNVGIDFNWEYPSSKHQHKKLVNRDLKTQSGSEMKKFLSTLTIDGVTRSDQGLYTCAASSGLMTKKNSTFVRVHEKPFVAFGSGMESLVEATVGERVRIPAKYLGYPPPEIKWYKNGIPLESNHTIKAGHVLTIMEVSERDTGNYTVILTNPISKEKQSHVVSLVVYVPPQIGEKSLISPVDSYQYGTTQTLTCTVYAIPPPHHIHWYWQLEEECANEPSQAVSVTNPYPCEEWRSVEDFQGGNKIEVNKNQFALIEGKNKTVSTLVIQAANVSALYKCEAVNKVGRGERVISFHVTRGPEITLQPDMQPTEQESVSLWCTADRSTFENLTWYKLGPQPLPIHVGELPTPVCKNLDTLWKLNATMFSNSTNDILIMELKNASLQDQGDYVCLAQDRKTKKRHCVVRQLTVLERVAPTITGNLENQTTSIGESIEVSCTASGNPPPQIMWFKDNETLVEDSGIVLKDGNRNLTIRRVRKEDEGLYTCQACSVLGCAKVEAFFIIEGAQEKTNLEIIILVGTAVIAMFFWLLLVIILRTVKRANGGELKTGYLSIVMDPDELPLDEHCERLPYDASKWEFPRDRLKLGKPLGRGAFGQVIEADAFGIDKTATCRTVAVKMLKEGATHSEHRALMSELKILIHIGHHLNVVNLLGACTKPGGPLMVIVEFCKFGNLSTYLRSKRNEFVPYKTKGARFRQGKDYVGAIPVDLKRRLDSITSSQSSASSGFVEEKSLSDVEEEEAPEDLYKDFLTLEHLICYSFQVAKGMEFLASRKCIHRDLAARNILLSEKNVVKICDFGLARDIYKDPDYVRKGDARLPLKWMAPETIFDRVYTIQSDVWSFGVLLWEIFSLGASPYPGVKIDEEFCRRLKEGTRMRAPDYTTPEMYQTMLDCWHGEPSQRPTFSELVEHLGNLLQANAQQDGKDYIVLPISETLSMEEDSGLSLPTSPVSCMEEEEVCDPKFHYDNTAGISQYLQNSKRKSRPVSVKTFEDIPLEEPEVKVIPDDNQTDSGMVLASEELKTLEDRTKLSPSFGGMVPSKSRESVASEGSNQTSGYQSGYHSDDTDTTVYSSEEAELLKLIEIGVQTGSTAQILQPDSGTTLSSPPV
Description: Inhibition of Vascular endothelial growth factor receptor 2
Data set [7] can be described thus: The pharmacokinetic parameter plasma clearance in vivo in rats. Type of data set: ADME, organism-based. The conditions noted are these: rat, read-out: CI.

Consider `c1cc(-c2cnn3cc(-c4ccc(OCCN5CCCCC5)cc4)cnc23)cs1` [L-21649], for which the bioavailability in data set [1] stood at 18%. For the same compound, the Vd in data set [2] is 16 L/kg. Further, the half-life in data set [3] is 5.1 h. Further, the logP in data set [4] was greater than 4.

For `O=c1cc(-c2cnc3c(-c4ccccc4)cnn3c2)ccn1CCCN1CCCCC1`, the logP in data set [4] came to 2.4.

For `c1cc(-c2cnn3cc(-c4ccc(OCCN5CCOCC5)cc4)cnc23)ccn1`, the concentration for half-maximal inhibition (IC50) in data set [5] worked out at 31 nM.

Consider `c1ccc(-c2cnn3cc(-c4ccc(OCCN5CCOCC5)cc4)cnc23)cc1`, for which the IC50 is 9 nM in data set [6] and 32 nM in data set [5].

In data set [5], `COc1ccc(-c2cnc3c(-c4ccncc4)cnn3c2)cc1` had an IC50 of 150 nM.

Take `CN1CCN(CCCn2ccc(-c3cnc4c(-c5ccccc5)cnn4c3)cc2=O)CC1`: in data set [4], the log partition coefficient (logP) was found to be 2.

With `c1cncc(-c2cnn3cc(-c4ccc(OCCN5CCCCC5)cc4)cnc23)c1`, the half-maximal inhibitory concentration (IC50) in data set [6] came to 20 nM; in data set [5], 29 nM. Besides, the bioavailability in data set [1] was 42%. Moreover, in data set [2], the Vd was determined as 6 L/kg. In data set [3], the half-life was 3.3 h. Further, the clearance in data set [7] is 23 mL/min/kg.

In data set [4], `COc1ccc(-c2cnc3c(-c4ccsc4)cnn3c2)cc1` had a logP greater than 4.

In data set [1], `CN1CCN(CCCn2ccc(-c3cnc4c(-c5ccsc5)cnn4c3)cc2=O)CC1` displayed a bioavailability of 56%. Moreover, the Vd in data set [2] is 7.9 L/kg. The compound further gave a half-life in data set [3] of 3.4 h. In data set [4], this compound registered a logP of 1.6.
